Data set [1] has as its target T1, nitrosylation of GAPDH (SNO-GAPDH) (Mus musculus, UniProt P16858). Description: S-nitrosylation biotin switch assay on striatum lysates of cocaine-injected mice.
Data set [2] relates to SUV39H1, H3K9 trimethylation, c-fos. Nature of the data set: Western blot/ChIP of striatum after behavioral-stimulant cocaine doses (SUV39H1, H3K9 trimethylation, c-fos). On the technique in general: A western blot detects proteins with antibodies after separation by electrophoresis.
In another data set the target is GAPDH (Mus musculus, UniProt P16858). Nature of the data set: Nuclear translocation of GAPDH in striatum of cocaine-treated mice.
Sequence of GAPDH (P16858 whole entry): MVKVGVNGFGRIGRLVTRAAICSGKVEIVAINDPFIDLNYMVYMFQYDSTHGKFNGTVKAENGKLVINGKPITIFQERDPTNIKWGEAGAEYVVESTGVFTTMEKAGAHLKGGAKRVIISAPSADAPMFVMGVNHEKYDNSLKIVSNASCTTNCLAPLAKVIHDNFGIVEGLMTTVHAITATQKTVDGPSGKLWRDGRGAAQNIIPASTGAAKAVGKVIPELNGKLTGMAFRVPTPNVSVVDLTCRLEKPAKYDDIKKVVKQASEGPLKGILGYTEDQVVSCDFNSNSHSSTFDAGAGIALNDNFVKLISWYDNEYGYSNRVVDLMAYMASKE
Data set [3] concerns mice. The note with it: for cocaine's locomotor activation, MAO-B inhibitor combined with cocaine: i.p. for 5 days, cocaine 30 mg/kg i.p., total beam breaks, FIGS. 4G and 4H. The procedure: Open-Field Test. Open-field assessments were conducted as described (Levine et al., 2011; Maze et al., 2010) with brief modifications. The open field is a square arena with the dimensions 47 cm 3 47 cm with a 38.1 cm high clear plastic wall. Activity chambers were computer interfaced for data sampling. Sixteen infrared photobeams in each direction (16×16), 2.77 cm spacing, were used to record movement. The San Diego PAS software recorded the total number of beam breaks, as well as the beam break's location in the center and peripheral areas.
Mice were divided in 5 groups (n=10-12 each). Each group of mice were injected (i.p.) with either CGP3466B or the MAO-B inhibitors deprenyl, rasagiline, lazabemide, and pargyline for 5 days. Mice were allowed to acclimate to the apparatus for 1 hr. After 60 min, mice received saline or cocaine (30 mg/kg of cocaine i.p.), and were returned to the open-field apparatus for a subsequent 75 min in which their activity was recorded. All data was measured in 5 min intervals and aggregated as necessary. Beam breaks or distance traveled for 20 min following cocaine/saline intraperitoneal injection after the first stage of testing were used to determine immediate peak locomotor response from cocaine injection. In between testing of mice, the arena was wiped with Vimoba cleaning solution. Mice were tested at the same time every day in order to minimize any variation due to circadian rhythm changes.

For a further data set, the system named is striatum. Nature of the data set: TUNEL assay of cell death in striatum induced by cocaine. It counts as in vivo, mice. Particulars: for cocaine induced cell death in striatum: MAO-B inhibitors with cocaine, FIG. 9B. As for the experimental part:
(§1) TUNEL assay. Primary neurons were grown on coverslips with a density of […] per 12-well. Cells were treated with deprenyl (2 μM), rasagaline (10 μM), lazabemide (10 μM) or pargyline (10 μM) for 16 hr and cell death was measured by TUNEL assays using TUNEL enzyme (Roche) and TUNEL label (Roche) following the manufacturer's instructions (Kickstein et al., 2010). To analysis cell death induced by neurotoxic dose of cocaine, we used TUNEL apoptosis detection kit (Millipore) using manufacturer's protocol (Lathia et al., 2010). Positive nuclei were counted in 30 fields (×400) for each slide.

In a further data set the test system is p53, PUMA. Description: p53 activation and PUMA induction in striatum after neurotoxic cocaine doses. Type of data set: in vivo, mice. As for the experimental part:
Sample Preparation from Cocaine-Injected Mice.
Chromatin immunoprecipitation (ChIP) assay.
Co-Immunoprecipitation. Striatum tissue were lysed in lysis buffer (50 mM Tris pH 7.4, 150 mM NaCl, 0.1% Chaps, 100 nM deferoxamine and 1 mM EDTA) and homogenized by passing through a 26-gauge needle. Crude lysates were cleared of insoluble debris by centrifugation at 14,000 g. IP buffer (50 mM Tris pH 7.4, 150 mM NaCl, 0.1% Chaps, 100 μM deferoxamine, 1 mM EDTA and 0.1 mg/ml BSA) was added to […] of cell lysates to bring samples to a total volume of 1 ml. Anti-Siah and anti-SUV39H1 antibody and 30 μl of protein G agarose were added and incubated on a rotator at 4° C. The protein G agarose was washed four times with lysis buffer and quenched with 30 μl of SDS sample buffer. Co-immunoprecipitates were resolved by SDS-PAGE and analyzed by western blotting with anti-GAPDH and anti-SUV39H1 antibodies.

Data set [4] concerns mice. Description: Conditioned place preference. Type of data set: in vivo. The procedure:
Conditioned Place Preference. The test was performed as described previously (Levine et al., 2011; Maze et al., 2010; Xi et al., 2011) with minor modifications. Two groups of wild-type mice were used to study the effect of CGP 3466B (0.15 mg/kg) on cocaine-(7 mg/kg) induced conditioned place preference or aversion. A three-chamber place preference apparatus was used. This apparatus consisted of two large side compartments and one small central compartment, which separated the large compartments. Two of the large compartments had different visual and tactile cues. One of the large compartments contained a green wire mesh floor. The second large compartment contained a cream-colored rubber floor. […]
Wild mice were divided into two groups. […] Experimental software (Any-Maze Video Tracking System v. 4.72) measured the amount of time each mouse spent in each of the three compartments.
For the next 10 days (days 2-11), mice entered the conditioning stage of testing with one session per day. […] On the probe trial day (24 hr after the last conditioning session), mice were given an injection of saline then were allowed to freely explore the three compartments for 15 min the time spent in each of the compartments was recorded by computer software. CPP score was calculated as time spent in cocaine chamber minus the time spent in saline/CGP3466B treated chamber.

The next data set concerns monoamine oxidase. The note with it: Hara et al., 2006; cited from earlier work.
In data set [5] the target is T2, GAPDH nitrosylation (Mus musculus, UniProt P16858).
T2 construct: in the brains of mice treated with the neurotoxic agent; host or cells: mouse brain
T2 sequence (P16858 whole entry): as above
Particulars: as reported earlier (Hara et al., 2006); cited from earlier work.

Data set [6] relates to mice. Nature of the data set: Rotarod performance. Type of data set: in vivo. Particulars: for rotarod performance with cocaine: 5 days: deprenyl 0.25, rasagiline 2.5, pargyline 50, lazabemide 50 mg/kg, then cocaine 50 mg/kg, FIG. 9C. As for the experimental part:
Rotarod Performance. The test was performed as described previously (Xi et al., 2011) with minor modifications. A four-station mouse rotarod device (AccuScan Instruments) was used to study the effects of CGP3466B, Deprenyl, Rasagiline, Lazabemide and Pargyline on cocaine induced operant locomotion in mice. The speed of rotation of the rotarod was increased from 4 to 32 rpm over 7 min.
Mice were divided into 5 groups (n=8). For 5 days prior to testing mice received one dose of deprenyl (0.25 mg/kg), rasagiline (2.5 mg/kg), pargyline (50 mg/kg), lazabemide (50 mg/kg), or saline followed by a high dose of cocaine (50 mg/kg). Mice were placed on the rotarod at a starting speed of 4 rpm, and the speed of the rotarod was increased to 32 rpm over the course of 7 min. This was repeated for a total of three trials in a day, and the latency at which the mice fell off the rotarod was recorded. Mice were tested at the same time every day in order to minimize any variation due to circadian rhythm changes.
In general terms: In the rotarod test animals must keep their balance on a rotating rod.

Data set [7] concerns the target T1, nitrosylation of GAPDH (SNO-GAPDH). Nature of the data set: S-nitrosylation biotin switch assay in cocaine-treated primary cortical neurons. Particulars: 16 hr, deprenyl 2 nM, FIG. 4A. Type of data set: cell-based. From the text:
S-nitrosvlation biotin switch assay.

In data set [8] the target is GAPDH nitrosylation (Homo sapiens, UniProt P04406). Particulars: cited from earlier work; for GAPDH nitrosylation in vitro: as reported earlier (Hara et al., 2006).
Sequence of GAPDH nitrosylation (Homo sapiens, UniProt P04406) (P04406 whole entry): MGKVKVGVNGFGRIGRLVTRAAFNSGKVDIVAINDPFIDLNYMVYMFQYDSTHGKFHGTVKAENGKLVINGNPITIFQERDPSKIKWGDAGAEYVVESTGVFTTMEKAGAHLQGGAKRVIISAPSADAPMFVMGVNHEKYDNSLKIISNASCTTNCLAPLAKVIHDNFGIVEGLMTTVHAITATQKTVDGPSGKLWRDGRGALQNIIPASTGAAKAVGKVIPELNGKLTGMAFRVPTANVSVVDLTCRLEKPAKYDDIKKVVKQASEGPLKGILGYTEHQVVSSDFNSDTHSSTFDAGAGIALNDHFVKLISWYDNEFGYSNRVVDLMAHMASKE
Another data set addresses GAPDH binding to Siah1 (Homo sapiens, UniProt P04406). The note with it: resultant of prevented GAPDH nitrosylation; cited from earlier work.
A short description of the next data set: Body weight of mice. Type of data set: in vivo. The note with it: FIG. 8B.
The test system of the next data set is primary cortical neurons. The note with it: TUNEL, 16 hr; deprenyl 2 μM, rasagiline, lazabemide, pargyline 10 μM; FIG. 4B. The procedure: as §1

Each structure is given as a SMILES string.

T1 sequence (P16858 whole entry): as the sequence (P16858 whole entry) above
Sequence of GAPDH binding to Siah1 (P04406 whole entry): as the sequence (P04406 whole entry) above

On to `C#CCN(C)CC1=Cc2ccccc2Oc2ccccc21` [CGP3466B, N-(dibenz(b,f)oxepin-10-ylmethyl)-N-methyl-N-prop-2-ynylamine], for which the “stimulation of GAPDH nitrosylation in striatum elicited by cocaine” value in [1] (0.15 mg/kg CGP3466B, behavioral-stimulant doses of cocaine (5-30 mg/kg), FIG. 7A) is “almost completely blocks”. In addition, the “nitrosylation of GAPDH in the striatum elicited by higher doses of cocaine” value in data set [1] (cocaine 30-50 mg/kg daily for 5 days with or without CGP3466B, FIG. 5A) was “abolished”. Further, in data set [2] (FIG. 3E), the “cocaine-elicited change of H3K9 trimethylation” value is “prevented”. The “degradation of SUV39H1” value in [2] (behavioral-stimulant doses of cocaine, FIG. 3D) was “blocks”. In addition, in data set [2] (behavioral-stimulant doses of cocaine, FIGS. 3F-3G), the “stimulation of c-fos expression” value is “blocks”. Besides, the “cocaine-elicited nuclear translocation of GAPDH” value on GAPDH (behavioral-stimulant doses of cocaine, FIG. 3C) is recorded as “prevents”. In addition, the “nuclear translocation of GAPDH at higher doses of cocaine” value on GAPDH (cocaine 30-50 mg/kg daily for 5 days, FIG. 5B) is “prevented”. Moreover, the “locomotor stimulation by cocaine” value in the data set on mice [3] (CGP3466B 0.15 mg/kg IP once a day for 5 days, cocaine on the fifth day, open field, FIG. 3H) is reported as “substantially reduces”. The basal locomotor activity result in the data set with mice [3] (CGP3466B 0.15 mg/kg, no cocaine) is “no effect”. Moreover, the “central or peripheral movement” value in the data set with mice [3] (mouse, in vivo) is listed as “no adverse effects”. In addition, the “locomotor stimulation in nNOS knockout mice treated with cocaine” value in the data set on mice [3] (nNOS knockout mice, FIG. 3I) is reported as “does not further decrease”. The “apoptosis (TUNEL) in striatum induced by cocaine” value in the data set with striatum (cocaine 30 and 50 mg/kg, chronic treatment with CGP3466B, FIG. 5F) was “markedly reduces”. In the data set with p53, PUMA (FIG. 5E), the “induction of PUMA level” value is on record as “blocks”. Also, the “activation of p53” value in the data set with p53, PUMA (FIGS. 5C and 5D) is reported as “blocks”. Moreover, the “cocaine preference (conditioned place preference)” value with mice [4] (CGP3466B 0.15 mg/kg 2 hr before each conditioning injection, cocaine 7 mg/kg, FIG. 3J) was “reduced”. The “conditioned place preference, single dose only on the day of testing” value with mice [4] (mice conditioned in the absence of CGP3466B, FIG. 6D) was “failed to alter”. The “monoamine oxidase inhibitory activity” value with monoamine oxidase is “lack monoamine oxidase inhibitory activity”. Also, the “GAPDH nitrosylation in the brains of mice treated with MPTP” value on GAPDH nitrosylation [5] is “potently inhibits”. Moreover, the “increase of latency for falling off the rod” value with mice [6] (co-treatment with CGP3466B, cocaine 50 mg/kg, FIG. 5G) is listed as 2.5- to 3 fold. Further, in [7], the “cocaine-induced nitrosylation of GAPDH in cortical cultures” value (shortened to “cocaine-induced nitrosylation of GAPDH”) was “prevents”. Moreover, at GAPDH nitrosylation [8], the “GAPDH nitrosylation in vitro” value was “potently inhibits” and the “concentrations at which nitrosylation of GAPDH is prevented” value is on record as “subnanomolar”. The “GAPDH binding to Siah1” value at GAPDH binding to Siah1 is reported as “inhibition”. For the same compound, in “Body weight of mice”, the body weight entry is given as “no adverse effects”.
With `C#CCN(C)[C@H](C)Cc1ccccc1` [deprenyl, R-(−)-N-methyl-N-(prop-2-ynyl)-2-aminophenylpropane], the “cocaine's locomotor activation, MAO-B inhibitor combined with cocaine” value in the data set on mice [3] is “significantly decreases”. For the same compound, in the data set with striatum, the “cocaine induced cell death in striatum” value is given as “do not rescue”. Moreover, on GAPDH nitrosylation [5], the “GAPDH nitrosylation in the brains of mice treated with MPTP” value was “potently inhibits”. For the same compound, in the data set on mice [6], the “rotarod performance with cocaine” value is “do not improve”. Also, the “cocaine-induced nitrosylation of GAPDH” value in data set [7] was “prevents”. In addition, the “GAPDH nitrosylation in vitro” value at GAPDH nitrosylation [8] is recorded as “potently inhibits”. Further, the “cell survival / cell death of primary cortical neurons” value with primary cortical neurons is on record as “no effect”.
As for `NCCNC(=O)c1ccc(Cl)cn1` [lazabemide], in the data set with mice [3], the “cocaine's locomotor activation, MAO-B inhibitor combined with cocaine” value is on record as “greater locomotor stimulation than cocaine alone”. The “cocaine induced cell death in striatum” value with striatum is recorded as “do not rescue”. Also, the “rotarod performance with cocaine” value with mice [6] is given as “do not improve”. Also, the “cocaine-induced nitrosylation of GAPDH” value in data set [7] was “do not prevent”.
Regarding `C#CCN(C)Cc1ccccc1` [pargyline], the “cocaine's locomotor activation, MAO-B inhibitor combined with cocaine” value with mice [3] is reported as “greater locomotor stimulation than cocaine alone”. For the same compound, the “cocaine induced cell death in striatum” value in the data set with striatum was “do not rescue”. For the same compound, the “rotarod performance with cocaine” value in the data set on mice [6] was “do not improve”. In addition, the “cocaine-induced nitrosylation of GAPDH” value in data set [7] was “do not prevent”.
The like results for `C#CCN[C@@H]1CCc2ccccc21` [rasagiline] were, in that order, “greater locomotor stimulation than cocaine alone”, “do not rescue”, “do not improve” and “do not prevent”.

The values are drawn from patent US9937144B2, “Treatment of drug abuse by preventing GAPDH nitrosylation” (THE JOHNS HOPKINS UNIVERSITY, priority 2013, dated 2018).
